Measurements reported in patent publication US7998978B2 (Pfizer Inc., priority 2006, dated 2011).

target: T1, JNK1α1 (Homo sapiens, UniProt P45983); experiment: Coupled spectrophotometric (PK/LDH) JNK1α1 assay: % inhibition and Ki determination; assay type: biochemical; settings: @1 uM; read-out: % Inhibition JNK-1
T1 construct: catalytic domain containing amino acids 1-364 and N-terminal hexahistidine tag; hexahistidine (His6) (N); made in house; host or cells: E. coli BL21 (DE3)
Procedure: % Inhibition and Ki Determination
A coupled spectrophotometric assay, coupling JNK1α1 activity to the oxidation of β-NADH to NAD+ through the action of pyruvate kinase (PK) and lactic dehydrogenase (LDH), was used to determine the potency (percent inhibition at 1 or 10 μM or Ki) of compounds against JNK1α1 (Genbank Accession Number: L26318). […] The reaction was monitored by following the decrease in absorbance at 340 nm. The initial reaction rate was determined by the slope of the change in absorbance. To calculate percent inhibition the rate of the reaction in the presence of 1 or 10 μM compound was compared to the rate of the reaction with only DMSO multiplied by 100 percent. Note, the background rate of the above reaction in the presence of 10 μM PHA-00738186 was subtracted from all rates. […] Y=(−X+Eo−(Ki*(1+A/Km))+((X−Eo+(Ki*(1+A/Km)))^2+4*Eo*(Ki*(1+A/Km)))^0.5)*(Vm*A/(Km+A)/(2*Eo)) Formula: • Parameters: Eo, Ki, A, Km, Vo • Y is initial reaction velocity; • X is inhibitor concentration; • A is [ATP]; • Ki is inhibition constant; • Vm is Vmax; • Eo is total (initial) enzyme concentration; • Km is ATP Km;
The compounds were prepared in 100% DMSO at a 40× concentration. For percent inhibition experiments this would be 400 or 40 μM for 10 and 1 μM final concentration, respectively. For the Ki determination 3× serial dilutions were made starting at 4 mM (100 μM at 1×) in DMSO. A total of 11 concentrations were used for the analysis. The compounds were added to the reaction plate first. Next, a solution containing the HEPES, MgCl2, DTT, peptide substrate, NADH, PEP, PK/LDH enzyme, and JNK1α1—364nHis enzyme was added to the assay plate. The plate was incubated at room temperature for 15 minutes. Then the plate was warmed to 30° C. for 5 minutes. The reaction was initiated with the addition of ATP. The reaction was run in a plate reader at 30° C. for 20 minutes with absorbance readings made about every 10 seconds.
The column with “#” heading refers to compound number as exemplified in the Examples section. The column with “Ki” heading refers to Ki (in nM). The column with “% Inhibition” heading refers to percent inhibition of JNK-1 at 1 μM or 10 μM (in %) unless otherwise stated. ND refers to no data was taken.

T1 sequence (P45983 1-364): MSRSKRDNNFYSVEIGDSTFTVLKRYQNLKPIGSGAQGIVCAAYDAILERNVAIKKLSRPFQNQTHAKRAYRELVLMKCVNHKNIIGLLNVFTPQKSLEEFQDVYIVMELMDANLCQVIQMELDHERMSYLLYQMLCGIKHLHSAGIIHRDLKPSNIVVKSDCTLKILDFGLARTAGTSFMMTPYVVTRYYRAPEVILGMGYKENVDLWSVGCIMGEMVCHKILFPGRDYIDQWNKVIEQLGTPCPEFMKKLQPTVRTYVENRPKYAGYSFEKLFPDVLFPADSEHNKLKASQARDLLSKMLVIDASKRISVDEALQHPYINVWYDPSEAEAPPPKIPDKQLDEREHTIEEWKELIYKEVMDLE

inhibition at 1 µM [%] | Structure (SMILES)
21 | CCN1CC(CNC(=O)c2cccc3cnc(N[C@H]4CC[C@H](O)CC4)nc23)CC1=O (stereo partly drawn) [Example 508, N-[(1-ethyl-5-oxopyrrolidin-3-yl)methyl]-2-[(trans-4-hydroxycyclohexyl)amino]quinazoline-8-carboxamide]
10 | Cn1c(CCNC(=O)c2cccc3cnc(N[C@H]4CC[C@H](O)CC4)nc23)nc2cccnc21 [Example 520, 2-[(trans-4-hydroxycyclohexyl)amino]-N-[2-(3-methyl-3H-imidazo[4,5-b]pyridin-2-yl)ethyl]quinazoline-8-carboxamide]
11 | CC(C)Nc1ncc2ccc(C(=O)N[C@H](CO)C(C)C)cc2n1 [Example 425, N-[(1S)-1-(hydroxymethyl)-2-methylpropyl]-2-(isopropylamino)quinazoline-7-carboxamide]
18 | Cc1cc(NC(=O)c2cccc3cnc(N[C@H]4CC[C@H](O)CC4)nc23)nc(C)n1 [Example 322, N-(2,6-dimethylpyrimidin-4-yl)-2-[(trans-4-hydroxycyclohexyl)amino]quinazoline-8-carboxamide]
24 | CN1CCC[C@H]1COc1ccc2cnc(N[C@H]3CC[C@H](O)CC3)nc2c1 [Example 273, trans-4-[(7-{[(2S)-1-methylpyrrolidin-2-yl]methoxy}quinazolin-2-yl)amino]cyclohexanol]
17 | CN1CCC(Oc2cccc3cnc(N[C@H]4CC[C@H](O)CC4)nc23)CC1 [Example 254, trans-4-({8-[(1-methylpiperidin-4-yl)oxy]quinazolin-2-yl}amino)cyclohexanol]
42 | O[C@H]1CC[C@H](Nc2ncc3ccc(OC4CCCN(Cc5ccccn5)C4)cc3n2)CC1 (stereo partly drawn) [Example 286, trans-4-[(7-{[1-(pyridin-2-ylmethyl)piperidin-3-yl]oxy}quinazolin-2-yl)amino]cyclohexanol]
34 | O=C1NCCN1CCOc1cccc2cnc(N[C@H]3CC[C@H](O)CC3)nc12 [Example 260, 1-[2-({2-[(trans-4-hydroxycyclohexyl)amino]quinazolin-8-yl}oxy)ethyl]imidazolidin-2-one]
24 | O=C(N[C@@H]1COC[C@H]1O)c1ccc2cnc(NC3CCC3)nc2c1 [Example 433, 2-(cyclobutylamino)-N-[(3R,4S)-4-hydroxytetrahydrofuran-3-yl]quinazoline-7-carboxamide]
39 | CC(C)c1ncc(NC(=O)c2cccc3cnc(N[C@H]4CC[C@H](O)CC4)nc23)cn1 [Example 321, 2-[(trans-4-hydroxycyclohexyl)amino]-N-(2-isopropylpyrimidin-5-yl)quinazoline-8-carboxamide]
13 | O=C(NCc1nncn1C1CCCCC1)c1cccc2cnc(N[C@H]3CC[C@H](O)CC3)nc12 [Example 497, N-[(4-cyclohexyl-4H-1,2,4-triazol-3-yl)methyl]-2-[(trans-4-hydroxycyclohexyl)amino]quinazoline-8-carboxamide]

same assay, conditions: @10 uM; read-out: % Inhibition JNK-1

inhibition at 10 µM [%] | Structure (SMILES)
58 | CC(=O)N1CCC(CNC(=O)c2cccc3cnc(N[C@H]4CC[C@H](O)CC4)nc23)CC1 [Example 505, N-[(1-acetylpiperidin-4-yl)methyl]-2-[(trans-4-hydroxycyclohexyl)amino]quinazoline-8-carboxamide]
72 | Cc1nccn1CCNC(=O)c1cccc2cnc(N[C@H]3CC[C@H](O)CC3)nc12 [Example 485, 2-[(trans-4-hydroxycyclohexyl)amino]-N-[2-(2-methyl-1H-imidazol-1-yl)ethyl]quinazoline-8-carboxamide]

same assay, conditions: JNK-1

Ki [nM] | Structure (SMILES)
271 | O=C(N[C@H](CO)CC1CCCCC1)c1ccc2cnc(N[C@H]3CC[C@H](O)CC3)nc2c1 [Example 386, N-[(1S)-2-cyclohexyl-1-(hydroxymethyl)ethyl]-2-[(trans-4-hydroxycyclohexyl)amino]quinazoline-7-carboxamide]
275 | O=C(N[C@H]1CC[C@H](CO)CC1)c1cccc2cnc(N[C@H]3CC[C@H](O)CC3)nc12 [Example 457, 2-[(trans-4-hydroxycyclohexyl)amino]-N-[trans-4-(hydroxymethyl)cyclohexyl]quinazoline-8-carboxamide]
147 | CCC[C@@H](CO)NC(=O)c1ccc2cnc(N[C@H]3CC[C@H](O)CC3)nc2c1 [Example 377, 2-[(trans-4-hydroxycyclohexyl)amino]-N-[(1S)-1-(hydroxymethyl)butyl]quinazoline-7-carboxamide]
1480 | CCn1cc(CNC(=O)c2ccc3cnc(N[C@H]4CC[C@H](O)CC4)nc3c2)cn1 [Example 356, N-[(1-ethyl-1H-pyrazol-4-yl)methyl]-2-[(trans-4-hydroxycyclohexyl)amino]quinazoline-7-carboxamide]
17 | O=C(CNC(=O)c1ccccc1)Nc1cc2cc(-c3cn[nH]c3)ccc2cn1 [Example 9, N-(2-oxo-2-{[6-(1H-pyrazol-4-yl)isoquinolin-3-yl]amino)ethyl)benzamide]
> 50 | COc1ccc2c(c1OC)CC[C@@H]2C(=O)Nc1cc2cc(-c3cn[nH]c3)ccc2cn1 [Example 22, (S)-4,5-dimethoxy-N-[6-(1H-pyrazol-4-yl)isoquinolin-3-yl]indane-1-carboxamide]
780 | CC(C)C(=O)N[C@H]1CC[C@H](Nc2ncc3cccc(OC4CCOCC4)c3n2)CC1 [Example 181, 2-methyl-N-(trans-4-{[8-(tetrahydro-2H-pyran-4-yloxy)quinazolin-2-yl]amino}cyclohexyl)propanamide]
451 | CCCNC(=O)c1cccc2cnc(N[C@H]3CC[C@H](O)CC3)nc12 [Example 461, 2-[(trans-4-hydroxycyclohexyl)amino]-N-propylquinazoline-8-carboxamide]
111 | O[C@H]1CC[C@H](Nc2ncc3ccc(Oc4ccccc4)cc3n2)CC1 [Example 161, trans-4-[(7-phenoxyquinazolin-2-yl)amino]cyclohexanol]
104 | O=C(NCC(O)c1ccccc1)c1cccc2cnc(N[C@H]3CC[C@H](O)CC3)nc12 (stereo partly drawn) [Example 443, 2-[(trans-4-hydroxycyclohexyl)amino]-N-(2-hydroxy-2-phenylethyl)quinazoline-8-carboxamide]
2450 | O=C(NCCN1CCOCC1)c1cccc2cnc(N[C@H]3CC[C@H](O)CC3)nc12 [Example 116, 2-[(trans-4-hydroxycyclohexyl)amino]-N-(2-morpholin-4-ylethyl)quinazoline-8-carboxamide]
461 | C[C@@H](CO)NC(=O)c1ccc2cnc(NC3CCCCC3)nc2c1 [Example 399, 2-(cyclohexylamino)-N-[(1S)-2-hydroxy-1-methylethyl]quinazoline-7-carboxamide]
460 | O=C(NCCc1ccccc1)c1ccc2cnc(N[C@H]3CC[C@H](O)CC3)nc2c1 [Example 63, 2-[(trans-4-hydroxycyclohexyl)amino]-N-(2-phenylethyl)quinazoline-7-carboxamide]
5 | O=C(CC(c1ccccc1)c1ccccc1)Nc1cc2cc(-c3cn[nH]c3)ccc2cn1 [Example 55, 3,3-diphenyl-N-[6-(1H-pyrazol-4-yl)isoquinolin-3-yl]propanamide]
4340 | CN(C)C(=O)c1ccc2cnc(N[C@H]3CC[C@H](O)CC3)nc2c1 [Example 59, 2-[(trans-4-hydroxycyclohexyl)amino]-N,N-dimethylquinazoline-7-carboxamide]
885 | O=C(N[C@H]1CC[C@H](CO)CC1)c1ccc2cnc(N[C@H]3CC[C@H](O)CC3)nc2c1 [Example 345, 2-[(trans-4-hydroxycyclohexyl)amino]-N-[trans-4-(hydroxymethyl)cyclohexyl]quinazoline-7-carboxamide]
836 | O=C(NCC1(O)CCC1)c1ccc2cnc(N[C@H]3CC[C@H](O)CC3)nc2c1 [Example 341, N-[(1-hydroxycyclobutyl)methyl]-2-[(trans-4-hydroxycyclohexyl)amino]quinazoline-7-carboxamide]
> 50 | COc1ccc2c(c1)CCC2C(=O)Nc1cc2cc(-c3cn[nH]c3)ccc2cn1 (centres unmarked) [Example 47, 5-methoxy-N-[6-(1H-pyrazol-4-yl)isoquinolin-3-yl]indane-1-carboxamide]
300 | CC(=O)N[C@H]1CC[C@H](Nc2ncc3cccc(C(=O)NCC(C)(C)O)c3n2)CC1 [Example 135, 2-{[trans-4-(acetylamino)cyclohexyl]amino}-N-(2-hydroxy-2-methylpropyl)quinazoline-8-carboxamide]
